EP0554025A2, “Fluorinated cyclobutyl purines and pyrimidines” (E.R. SQUIBB & SONS, INC., priority 1992, dated 1993)
Like-named read-outs stand apart in the source and are kept apart here.

Legend:
Format in all cases: cell-based
[1] = system: VZV (varicella zoster virus, strain ELLEN); test: VZV plaque reduction antiviral assay in WI-38 cell culture monolayers; conditions: plaque reduction after 6-7 days incubation at 37°C, read-out: ID50 (μM) for the following viruses VZV
Protocol: (§1) Assays were performed in cell culture systems to determine the concentrations of compounds that are effective in preventing several kinds of viral infections. HSV-1 (herpes simplex virus type 1, strain Schooler), HSV-2 (herpes simplex virus type 2, strain 186), VZV (varicella zoster virus, strain ELLEN), HCMV (human cytomegalovirus, strain AD 169). HSV-1, HSV-2, HCMV, and VZV antiviral assays: Virus was adsorbed to WI-38 cell culture monolayers in 6 cell culture plates (Costar, Cambridge, MA) for 1 hour prior to addition of maintenance medium containing duplicate dilutions of the test compound. Inhibition of plaque development was evaluated on fixed and stained monolayers after 4 days incubation at 37°C for HSV-1 and HSV-2 and after 6-7 days incubation at 37°C for HCMV and VZV. ID50 values were determined from the drug concentration which conferred at least a 50% plaque reduction compared to virus controls.

[2] = system: HSV-1 (herpes simplex virus type 1, strain Schooler); test: HSV-1 plaque reduction antiviral assay in WI-38 cell culture monolayers; conditions: WI-38 cell monolayers, plaque reduction after 4 days incubation at 37°C, read-out: ID50 (μM) for the following viruses HSV-1
Protocol: as §1

[3] = system: HCMV (human cytomegalovirus, strain AD 169); test: HCMV plaque reduction antiviral assay in WI-38 cell culture monolayers; conditions: plaque reduction after 6-7 days incubation at 37°C, read-out: ID50 (μM) for the following viruses HCMV
Protocol: as §1

[4] = system: HSV-2 (herpes simplex virus type 2, strain 186); test: HSV-2 plaque reduction antiviral assay in WI-38 cell culture monolayers; conditions: WI-38 cell monolayers, plaque reduction after 4 days incubation at 37°C, read-out: ID50 (μM) for the following viruses HSV-2
Protocol: as §1

## Nc1nc2c(ncn2[C@H]2C[C@@](F)(CO)[C@@H]2O)c(=O)[nH]1 [Product of Example 2, (1 α,2β,3β)-2-Amino-9-[3-fluoro-2-hydroxy-3-(hydroxymethyl)cyclobutyl]-1,9-dihydro-6H-purin-6-one]
[1]; WI-38 cell monolayers
  IC50: 7 to 19 µM
[2]
  IC50: 37 to 93 µM
[3]; WI-38 cell monolayers
  IC50: 37 µM
[4]
  IC50: 37 to 93 µM

## Nc1nc2c(ncn2C2CC(F)(CO)C2CO)c(=O)[nH]1 (stereo not drawn) [Product of Example 1, (1α,2β,3β)-2-Amino-9-[3-fluoro-2,3-bis(hydroxymethyl)cyclobutyl]-1,9-dihydro-6H-purin-6-one]
[1]; Human alphaherpesvirus 3, WI-38 cell monolayers
  IC50: 1.1 µM
[2]; Human alphaherpesvirus 1, 96 h
  IC50: 0.35 to 0.7 µM
[3]; Human betaherpesvirus 5, WI-38 cell monolayers
  IC50: 7 to 18 µM
[4]; Human alphaherpesvirus 2, 96 h
  IC50: 0.35 to 0.7 µM
